Test results: paper PMC6736736 (Molecular microbiology, 2019)

How the values were obtained:
ZagA (YciC) [1] = target: T1, ZagA (YciC) (Bacillus subtilis, UniProt P94400); experiment: inhibition of ZTP hydrolysis, malachite green assay; type: biochemical; details: substrate ZTP
ZagA (YciC) [2] = target: T1, ZagA (YciC); experiment: inhibition of GTP hydrolysis, malachite green assay; type: biochemical; details: substrate GTP

T1 sequence (P94400 whole entry): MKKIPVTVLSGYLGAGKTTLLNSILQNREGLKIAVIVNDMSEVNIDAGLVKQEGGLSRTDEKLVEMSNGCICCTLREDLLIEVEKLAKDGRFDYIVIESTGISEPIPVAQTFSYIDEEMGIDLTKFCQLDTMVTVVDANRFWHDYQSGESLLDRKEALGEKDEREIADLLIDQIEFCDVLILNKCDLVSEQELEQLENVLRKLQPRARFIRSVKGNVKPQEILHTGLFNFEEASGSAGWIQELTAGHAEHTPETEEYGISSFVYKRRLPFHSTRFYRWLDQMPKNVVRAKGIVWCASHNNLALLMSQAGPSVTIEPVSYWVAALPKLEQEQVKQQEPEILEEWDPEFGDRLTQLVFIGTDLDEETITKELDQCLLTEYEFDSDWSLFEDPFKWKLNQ

Row | Structure (SMILES) | inhibition of ZTPase activity (ZagA (YciC) [1]) | inhibition of GTPase activity (ZagA (YciC) [2])
1 | Nc1nc2c(ncn2[C@@H]2O[C@H](COP(=O)(O)OP(=O)(O)NP(=O)(O)O)[C@@H](O)[C@H]2O)c(=O)[nH]1 [GDP-NP] | GDP-NP, a non-hydrolyzable analog of GTP, inhibited ZTP hydrolysis | –
2 | NC(=O)c1ncn([C@@H]2O[C@H](COP(=O)(O)O)[C@@H](O)[C@H]2O)c1N [ZMP] | – | Conversely, ZMP inhibited GTP hydrolysis (Fig 4D)
